# “And” between values parts separate entries of the source, which are not always exact repeats. Equal values may be shown once.
# Experiments:
# KYSE410 cells = experiment: MTT assay, KYSE410; assay type: cell-based, human; conditions: for IC50: Homo sapiens, KYSE-410, MTT, 48 h, KYSE410, n = 5, read-out: IC50 48 h KYSE410
# Source text: (§1) The human cancer cells (H1650, H1975, KYSE70, KYSE410 and KYSE450) were purchased from the Type Culture Collection of the Chinese Academy of Sciences (Shanghai, China). The human immortalized normal esophageal epithelial cell line SHEE was donated by Dr. Enmin Li from the Laboratory of Tumor Pathology (Shantou University Medical College, Shantou, Guangdong, China). Drug-resistant cells (H1650TR, H1975OR, KYSE70TR, KYSE410TR and KYSE450TR) were induced by China-US (Henan) Hormel Cancer Institute. The cellswere cultured in RPMI-1640 complete growth medium containing 100 U/mL penicillin-streptomycin and 10% FBS. Based on the above medium formula, 100 nm/L paclitaxel was added in taxol-resistant cells, 100 nm/L gefitinib was added in gefitinib-resistant cells. The cells were incubated at 37 °C in an atmosphere containing 5% of CO2. The compounds were dissolved in DMSO to make a 50 mM stock solution and were diluted to the concentration of working solutions with complete growth medium before administration.
# (§2) Cells were seeded in 96-well plates with 2,200–2,500 cells/well in100 μL. One day after seeding, test compounds with the concentration between 0 and 50 μM were added with 0.1% DMSO as control. Five multiple wells for each concentration. After 48 h, MTT was added and incubated in the plate for 1–4 h in the incubator. The absorbance at 490 nm was measured using a microplate reader (Thermo).
# KYSE450 cells = experiment: MTT assay, KYSE450; assay type: cell-based, human; conditions: for IC50: Homo sapiens, KYSE-450, MTT, 48 h, KYSE450, n = 5, read-out: IC50 48 h KYSE450; for absorbance 490 nm, single well / mean absorbance 490 nm (row G) / mean absorbance 490 nm minus background (row H): KYSE450
# Source text: as §1, §2
# H1650 cells = experiment: MTT assay for cell proliferation and cytotoxicity, H1650; assay type: cell-based; conditions: Homo sapiens, NCI-H1650, 48 h, H1650, n = 5
# Source text: as §1, §2
# H1975 cells = experiment: MTT assay for cell proliferation and cytotoxicity, H1975; assay type: cell-based, human; conditions: Homo sapiens, NCI-H1975, 48 h, MTT, 48 h, H1975, n = 5; read-out: IC50 48 h H1975
# Source text: as §1
# as §2, with “After 48 h, MTT was added and incubated in the plate for 1–4 h in the incubator.” left out
# KYSE70 cells = experiment: MTT assay, KYSE70; assay type: cell-based, human; conditions: for IC50: Homo sapiens, KYSE-70, MTT, 48 h, KYSE70, n = 5
# Source text: as §1, §2
# SHEE cells = experiment: MTT assay, normal esophageal epithelial cell line SHEE; assay type: cell-based; conditions: Homo sapiens, 48 h, n = 5
# Source text: as §1, §2
# [1] = concentration 12.5 (unit not given)
# [2] = concentration 25 (unit not given)
# [3] = concentration 50 (unit not given)
# [4] = concentration 100 (unit not given)
smiles,measurement,setting,value
Fc1ccc(-n2cc(-c3cccc(Nc4ncnc5cc6c(cc45)OCCOCCOCCO6)c3)nn2)cc1 [compound 3c],IC50,KYSE410 cells,> 50 µM
same,melting point,,129 to 132 °C
same,IC50,KYSE450 cells,13.8 ± 1.13 µM
same,IC50,H1650 cells,9.4 ± 0.73 µM
same,IC50,H1975 cells,> 50 µM
same,IC50,KYSE70 cells,5.84 ± 0.36 µM
same,IC50,SHEE cells,6.23 ± 0.37 µM
Brc1ccccc1-n1cc(-c2cccc(Nc3ncnc4cc5c(cc34)OCCOCCOCCO5)c2)nn1 [compound 3k],IC50,KYSE410 cells,21.9 ± 1.39 µM
same,melting point,,129 to 132 °C
same,IC50,KYSE450 cells,6.25 ± 0.57 µM
same,IC50,H1650 cells,17.7 ± 1.21 µM
same,IC50,H1975 cells,27.2 ± 1.67 µM
same,IC50,KYSE70 cells,5.05 ± 0.34 µM
same,IC50,SHEE cells,12.5 ± 1.03 µM
COc1cccc(Cn2cc(-c3cccc(Nc4ncnc5cc6c(cc45)OCCOCCOCCO6)c3)nn2)c1 [compound 3t],IC50,KYSE410 cells,> 50 µM
same,melting point,,131 to 134 °C
same,IC50,KYSE450 cells,45.6 ± 2.01 µM
same,IC50,H1650 cells,21 ± 1.91 µM
same,IC50,H1975 cells,20 ± 1.52 µM
same,IC50,KYSE70 cells,> 50 µM
same,IC50,SHEE cells,33.3 ± 1.99 µM
COc1cccc(-n2cc(-c3cccc(Nc4ncnc5cc6c(cc45)OCCOCCOCCO6)c3)nn2)c1 [compound 3i],IC50,KYSE410 cells,> 50 µM
same,blank-corrected absorbance 490 nm relative to control (fraction),"KYSE410 cells; KYSE410, concentration 12.5",0.4787
same,blank-corrected absorbance 490 nm relative to control (fraction),"KYSE410 cells; KYSE410, concentration 25",0.6596
same,blank-corrected absorbance 490 nm relative to control (fraction),"KYSE410 cells; KYSE410, concentration 50",1.468
same,blank-corrected absorbance 490 nm relative to control (fraction),"KYSE410 cells; KYSE410, concentration 100",0.817
same,melting point,,122 to 125 °C
same,IC50,KYSE450 cells,10 ± 0.93 µM
same,"absorbance 490 nm, single well",KYSE450 cells; [1],0.3641 and 0.3196 and 0.3651
same,mean absorbance 490 nm (row G),KYSE450 cells; [1],0.3496
same,mean absorbance 490 nm minus background (row H),KYSE450 cells; [1],0.2948
same,"absorbance 490 nm, single well",KYSE450 cells; [2],0.1604 and 0.1809 and 0.1731
same,mean absorbance 490 nm (row G),KYSE450 cells; [2],0.1715
same,mean absorbance 490 nm minus background (row H),KYSE450 cells; [2],0.1167
same,"absorbance 490 nm, single well",KYSE450 cells; [3],0.1052 and 0.1046 and 0.0923 and 0.1026
same,mean absorbance 490 nm (row G),KYSE450 cells; [3],0.1012
same,mean absorbance 490 nm minus background (row H),KYSE450 cells; [3],0.04637
same,"absorbance 490 nm, single well",KYSE450 cells; [4],0.0702 and 0.0745 and 0.0767 and 0.0714
same,mean absorbance 490 nm (row G),KYSE450 cells; [4],0.0732
same,mean absorbance 490 nm minus background (row H),KYSE450 cells; [4],0.0184
same,IC50,H1650 cells,6.25 ± 0.54 µM
same,IC50,H1975 cells,19.7 ± 1.07 µM
same,IC50,KYSE70 cells,7.02 ± 0.64 µM
same,blank-corrected absorbance 490 nm relative to control (fraction),"KYSE70 cells; KYSE70, concentration 12.5",0.1099
same,inhibition (1 minus fraction of control),"KYSE70 cells; KYSE70, concentration 12.5",0.8901
same,blank-corrected absorbance 490 nm relative to control (fraction),"KYSE70 cells; KYSE70, concentration 25",0.08489
same,inhibition (1 minus fraction of control),"KYSE70 cells; KYSE70, concentration 25",0.9151
same,blank-corrected absorbance 490 nm relative to control (fraction),"KYSE70 cells; KYSE70, concentration 50",0.007475
same,inhibition (1 minus fraction of control),"KYSE70 cells; KYSE70, concentration 50",0.9925
same,blank-corrected absorbance 490 nm relative to control (fraction),"KYSE70 cells; KYSE70, concentration 100",-0.01388
same,inhibition (1 minus fraction of control),"KYSE70 cells; KYSE70, concentration 100",1.014
same,IC50,SHEE cells,28.1 ± 1.38 µM
Brc1cc(Br)cc(Cn2cc(-c3cccc(Nc4ncnc5cc6c(cc45)OCCOCCOCCO6)c3)nn2)c1 [compound 3u],IC50,KYSE410 cells,> 50 µM
same,melting point,,151 to 154 °C
same,IC50,KYSE450 cells,> 50 µM
same,IC50,H1650 cells,> 50 µM
same,IC50,H1975 cells,> 50 µM
same,IC50,KYSE70 cells,> 50 µM
same,IC50,SHEE cells,> 50 µM
Fc1ccc(CCn2cc(-c3cccc(Nc4ncnc5cc6c(cc45)OCCOCCOCCO6)c3)nn2)cc1 [compound 3v],IC50,KYSE410 cells,21.6 ± 1.35 µM
same,blank-corrected absorbance 490 nm relative to control (fraction),"KYSE410 cells; KYSE410, concentration 12.5",1.2383
same,inhibition (1 minus fraction of control),"KYSE410 cells; KYSE410, concentration 12.5",-0.2383
same,blank-corrected absorbance 490 nm relative to control (fraction),"KYSE410 cells; KYSE410, concentration 25",0.4202
same,inhibition (1 minus fraction of control),"KYSE410 cells; KYSE410, concentration 25",0.5798
same,blank-corrected absorbance 490 nm relative to control (fraction),"KYSE410 cells; KYSE410, concentration 50",0.1986
same,inhibition (1 minus fraction of control),"KYSE410 cells; KYSE410, concentration 50",0.8014
same,blank-corrected absorbance 490 nm relative to control (fraction),"KYSE410 cells; KYSE410, concentration 100",-0.03723
same,inhibition (1 minus fraction of control),"KYSE410 cells; KYSE410, concentration 100",1.037
same,melting point,,110 to 113 °C
same,IC50,KYSE450 cells,11 ± 0.97 µM
same,"absorbance 490 nm, single well",KYSE450 cells; [1],0.3527 and 0.3885 and 0.4267 and 0.4169
same,mean absorbance 490 nm (row G),KYSE450 cells; [1],0.3962
same,mean absorbance 490 nm minus background (row H),KYSE450 cells; [1],0.3414
same,"absorbance 490 nm, single well",KYSE450 cells; [2],0.1525 and 0.1448 and 0.156 and 0.143 and 0.153
same,mean absorbance 490 nm (row G),KYSE450 cells; [2],0.1499
same,mean absorbance 490 nm minus background (row H),KYSE450 cells; [2],0.09506
same,"absorbance 490 nm, single well",KYSE450 cells; [3],0.0873 and 0.0943 and 0.1023 and 0.0955
same,mean absorbance 490 nm (row G),KYSE450 cells; [3],0.09485
same,mean absorbance 490 nm minus background (row H),KYSE450 cells; [3],0.04005
same,"absorbance 490 nm, single well",KYSE450 cells; [4],0.0657 and 0.0611 and 0.0638 and 0.0596 and 0.0609
same,mean absorbance 490 nm (row G),KYSE450 cells; [4],0.06222
same,mean absorbance 490 nm minus background (row H),KYSE450 cells; [4],0.00742
same,IC50,H1650 cells,11.6 ± 0.96 µM
same,IC50,H1975 cells,11.1 ± 0.95 µM
same,IC50,KYSE70 cells,6.93 ± 0.37 µM
same,blank-corrected absorbance 490 nm relative to control (fraction),"KYSE70 cells; KYSE70, concentration 12.5",0.0977
same,inhibition (1 minus fraction of control),"KYSE70 cells; KYSE70, concentration 12.5",0.9023
same,blank-corrected absorbance 490 nm relative to control (fraction),"KYSE70 cells; KYSE70, concentration 25",0.03951
same,inhibition (1 minus fraction of control),"KYSE70 cells; KYSE70, concentration 25",0.9605
same,blank-corrected absorbance 490 nm relative to control (fraction),"KYSE70 cells; KYSE70, concentration 50",0.1249
same,inhibition (1 minus fraction of control),"KYSE70 cells; KYSE70, concentration 50",0.8751
same,blank-corrected absorbance 490 nm relative to control (fraction),"KYSE70 cells; KYSE70, concentration 100",0.0961
same,inhibition (1 minus fraction of control),"KYSE70 cells; KYSE70, concentration 100",0.9039
same,IC50,SHEE cells,8.26 ± 0.71 µM
Fc1cccc(-n2cc(-c3cccc(Nc4ncnc5cc6c(cc45)OCCOCCOCCO6)c3)nn2)c1 [compound 3a],IC50,KYSE410 cells,48.6 ± 2.16 µM
same,melting point,,123 to 126 °C
same,IC50,KYSE450 cells,7.24 ± 0.65 µM
same,IC50,H1650 cells,15.6 ± 1.02 µM
same,IC50,H1975 cells,9.87 ± 0.88 µM
same,IC50,KYSE70 cells,10.2 ± 0.88 µM
same,IC50,SHEE cells,12.1 ± 0.97 µM
